This note sets out measurements from patent US12595251B2, “Amidines and amidine analogs for the treatment of bacterial infections and potentiation antibiotics” (GEORGIA STATE UNIVERSITY RESEARCH FOUNDATION, INC., priority 2018, dated 2026).

Converted amounts (≈) assume the structure as drawn.

The first data set concerns E. coli. Put plainly: Sensitization of E. coli to erythromycin (sensitization fold from IC90, OD600, 20 h). The data set is classed as cell-based, Escherichia coli. The conditions noted are these: sensitization fold = IC90 of erythromycin without/with compound; compound concentration not given; NA=no activity, T=toxic. The method, then: E. coli bacteria were cultured in Miller's broth at 37° C. overnight prior to treatment. B. subtilis bacteria were cultured in nutrient broth at 37° C. overnight prior to treatment. […] Bacterial density was measured based on OD600.
As to `N=C(N)c1ccc2nc(-c3ccc(OCC(F)(F)C(F)(F)COc4ccc(-c5nc6ccc(C(=N)N)cc6[nH]5)cc4)cc3)[nH]c2c1` [drawing 706], the “SF (E. coli)” value was less than 2.

On to `N=C(N)c1ccc(OCc2cccc(COc3ccc(C(=N)N)cc3F)c2F)c(F)c1` [drawing 713], for which the “SF (E. coli)” value is reported as 6.

The test system of another data set is M. smegmatis. Kind of data set: Antibacterial activity against M. smegmatis (MIC, OD600, 48 h). Conditions: Mycolicibacterium smegmatis, MIC = 90% growth inhibition, 7H9 media, NA=no activity. Type of data set: cell-based, Mycobacterium smegmatis.
Consider `Cc1cc(COc2ccc(C(=N)NC(C)C)cc2)cc(COc2ccc(C(=N)NC(C)C)cc2)c1` [drawing 815], for which it took 3 µM (≈ 1.42 µg/mL) to inhibit growth (MIC). The same measure, in the same setting: the figure for `Fc1c(COc2ccc(C3=NCCN3)cc2)cccc1COc1ccc(C2=NCCN2)cc1` [drawing 811] is 25 µM (≈ 11.1 µg/mL).

In turn, `c1cc(COc2ccc(C3=NCCN3)cc2)cc(COc2ccc(C3=NCCN3)cc2)c1` [drawing 810] showed an MIC of 12 µM (≈ 5.12 µg/mL). This MIC lies about 2.1-fold lower than the previous one. In turn, `N=C(N)c1ccc(OCc2ccc(-c3ccc(C(=N)N)cc3)cc2)cc1` [drawing 804] came in with an MIC of 6 µM (≈ 2.07 µg/mL). `CC(C)(C)c1cc(COc2ccc(C(=N)N)cc2)cc(COc2ccc(C(=N)N)cc2)c1` [drawing 818] displayed an MIC of 6 µM (≈ 2.58 µg/mL). That is a single-digit micromolar value. On the same count and under the same terms, the result for `N=C(N)c1ccc(OCc2cccc(COc3ccc(C(=N)N)cc3)n2)cc1` [drawing 823] reads 12 µM (≈ 4.51 µg/mL); that for `N=C(N)c1ccc(OCc2cc(COc3ccc(C(=N)N)cc3)cc(COc3ccc(C(=N)N)cc3)c2)cc1` [drawing 828], 3 to 6 µM (≈ 1.57 to 3.14 µg/mL); that for `COc1cc(C(=N)N)ccc1OCc1cccc(COc2ccc(C(=N)N)cc2OC)c1F` [drawing 817], 6 µM (≈ 2.71 µg/mL). The same measure, in the same setting: the result for `Cn1c(-c2ccc(-c3ccc(C(=N)N)cc3)s2)nc2cc(-c3ccc(C(=N)N)cc3)ccc21` [drawing 819] reads 6 µM (≈ 2.7 µg/mL); that for `N=C(N)c1ccc(OCc2cccc(COc3ccc(C(=N)N)cc3F)c2F)c(F)c1` [drawing 805], 12 µM (≈ 5.14 µg/mL). The same measure, in the same setting: the figure for `N=C(N)c1ccc2nc(-c3ccc(OCC(F)(F)C(F)(F)COc4ccc(-c5nc6ccc(C(=N)N)cc6[nH]5)cc4)cc3)[nH]c2c1` [drawing 801] is 6 µM (≈ 3.78 µg/mL); for `N=C(N)c1ccc(OCc2cccc(COc3ccc(C(=N)N)cc3)c2)cc1` [drawing 821] it is 12 µM (≈ 4.49 µg/mL); for `Cc1cc(COc2ccc(C(=N)N)cc2)cc(COc2ccc(C(=N)N)cc2)c1` [drawing 809] it is 12 µM (≈ 4.66 µg/mL). For the molecule `Cc1cc(CCc2ccc(C(=N)N)cc2)cc(CCc2ccc(C(=N)N)cc2)c1` [drawing 829], the MIC was in the range of 6 to 12 µM (≈ 2.31 to 4.61 µg/mL). Regarding `COc1cc(C2=NCCN2)ccc1OCc1cccc(COc2ccc(C3=NCCN3)cc2OC)c1F` [drawing 813], the MIC is 25 µM (≈ 12.6 µg/mL).

The molecule `Cc1cc(COc2ccc(C3=NCCN3)cc2)cc(COc2ccc(C3=NCCN3)cc2)c1` [drawing 826] came in with an MIC of 25 µM (≈ 11 µg/mL). The molecule `N=C(N)c1ccc(OCc2cccc(COc3ccc(C(=N)N)cc3)c2F)cc1` [drawing 806] yielded an MIC of 12 µM (≈ 4.71 µg/mL). Same read-out and setting: the result for `N=C(N)c1ccc(OCc2ccc(COc3ccc(C(=N)N)cc3)cc2)cc1` [drawing 814] reads 3 µM (≈ 1.12 µg/mL); that for `CC(C)NC(=N)c1ccc(OCc2cccc(COc3ccc(C(=N)NC(C)C)cc3)c2F)cc1` [drawing 830], 3 µM (≈ 1.43 µg/mL); that for `COc1cc(C(=N)N)ccc1OCc1cc(C)cc(COc2ccc(C(=N)N)cc2OC)c1` [drawing 816], 25 µM (≈ 11.2 µg/mL).

With `Cc1cc(-c2nc3cc(C(=N)N)ccc3n2C)sc1-c1ccc(OCCCCOc2ccc(C(=N)N)cc2)cc1` [drawing 822], the MIC is 3 to 6 µM (≈ 1.66 to 3.32 µg/mL). The same measure, in the same setting: the result for `N=C(N)c1ccc(OCCCCCCOc2ccc(C(=N)N)cc2)cc1` [drawing 825] reads 6 µM (≈ 2.13 µg/mL); that for `CC(C)NC(=N)c1ccc(OCc2cccc(COc3ccc(C(=N)NC(C)C)cc3F)c2F)c(F)c1` [drawing 831], 12 µM (≈ 6.15 µg/mL).

The test system of another data set is H9c2 cells. Kind of data set: Cytotoxicity in H9c2 cells (CCK-8, 24 h). Type of data set: cell-based.
Settings: not given
The method, then: H9c2 (ATCC®R-1446™) cells Were used in the studies. The H9c2 cells were maintained in DMEM (Dulbeccoa's Modified Eagle's Medium) supplemented with 10% fetal bovine serum (Mid Sci; S01520HI) and 1% penicillin-streptomycin (Sigma-Aldrich; P4333) at 37° C. with 5% CO2. The H9c2 cells were seeded in 96-well plate one day before the experiment. Different concentrations of di-amidine compounds were added into the H9c2 cells. The cells were then incubated with the compounds for 24 h at 37° C. with 5% CO2. The cell viability was tested by the CCK-8. Specifically, after 24 h incubation, 10 μL CCK-8 was added to each well. After 3 h incubation at 37° C., the absorbance at 450 nm was recorded by a plate reader. The cytoxicity in HEK293 and 3T3 cells was measured using the same procedure. Data is shown in Table 5 (NT=not toxic; --=not tested).
Consider `N=C(N)c1ccc(COc2cc(OCc3ccc(C(=N)N)cc3)cc(C(F)(F)F)c2)cc1` [drawing 888], for which the “H9c2 CC^50” value is 50 µM. Regarding `N=C(N)c1ccc(Oc2ccc(C(=N)N)cc2)cc1` [drawing 851], the “H9c2 CC^50” value turned out to be 50 µM. With `N=C(N)c1ccc(OCCCCCCOc2ccc(C(=N)N)cc2)cc1` [drawing 862], the “H9c2 CC^50” value is less than 5 µM.

With `N=C(N)c1ccc(OCc2cccc(COc3ccc(C(=N)N)cc3)c2F)cc1` [drawing 859], the “H9c2 CC^50” value turned out to be 50 µM. Still for that read-out and setting: the result for `Cn1c(CCCCc2nc3ccc(C(=N)N)cc3n2C)nc2ccc(C(=N)N)cc21` [drawing 850] reads 50 µM. Still for that read-out and setting: the figure for `Cn1c(CCc2nc3cc(C(=N)N)ccc3n2C)nc2cc(C(=N)N)ccc21` [drawing 860] is 50 µM; for `COc1cc(C(=N)N)ccc1OCc1cccc(COc2ccc(C(=N)N)cc2OC)c1F` [drawing 872] it is 12.5 µM; for `COc1cc(C2=NCCN2)ccc1OCc1cccc(COc2ccc(C3=NCCN3)cc2OC)c1F` [drawing 868] it is 50 µM. Consider `N=C(N)c1ccc(OCc2cccc(COc3ccc(C(N)=O)cc3)n2)cc1`, for which the “H9c2 CC^50” value is 50 µM. With `Cc1cc(COc2ccc(NC(=N)N)cc2)cc(COc2ccc(NC(=N)N)cc2)c1`, the “H9c2 CC^50” value came to 100 µM.

Regarding `N=C(N)c1ccc(OCc2cccc(COc3ccc(C(=N)N)cc3)c2)cc1` [drawing 853], the “H9c2 CC^50” value worked out at 50 µM. For `CCCCc1cc(OCc2ccc(C(=N)N)cc2)cc(OCc2ccc(C(=N)N)cc2)c1` [drawing 887], the “H9c2 CC^50” value is 25 µM. With `CC(C)(C)c1cc(COc2ccc(C(=N)N)cc2)cc(COc2ccc(C(=N)N)cc2)c1` [drawing 873], the “H9c2 CC^50” value was found to be 25 µM. On the same count and under the same terms, the result for `c1cc(COc2ccc(C3=NCCN3)cc2)cc(COc2ccc(C3=NCCN3)cc2)c1` [drawing 865] reads less than 12 µM; that for `N=C(N)c1ccc2nc(-c3ccc(OCC(F)(F)C(F)(F)COc4ccc(-c5nc6ccc(C(=N)N)cc6[nH]5)cc4)cc3)[nH]c2c1` [drawing 847], 50 µM.

For the molecule `N=C(N)c1ccc(OCc2cccc(COc3ccc(C(=N)N)cc3)n2)cc1` [drawing 857], the “H9c2 CC^50” value was 50 µM. On the same count and under the same terms, the result for `N=C(N)c1ccc2[nH]c(-c3ccc(-c4ccc(-c5ccc(-c6ccc(-c7nc8cc(C(=N)N)ccc8[nH]7)cc6)s5)s4)cc3)nc2c1` [drawing 849] reads 50 µM.

Regarding `Cc1cc(-c2nc3cc(C(=N)N)ccc3n2C)sc1-c1ccc(OCCCCOc2ccc(C(=N)N)cc2)cc1` [drawing 856], the “H9c2 CC^50” value was 50 µM. Take `N=C(N)c1ccc(OCc2ccc(-c3ccc(C(=N)N)cc3)cc2)cc1` [drawing 852]: the “H9c2 CC^50” value amounted to 50 µM. For `N=C(N)c1ccc(OCOc2ccc(C(=N)N)cc2)cc1` [drawing 858], the “H9c2 CC^50” value was determined as 50 µM. For `Fc1cc(C2=NCCN2)ccc1OCc1cccc(COc2ccc(C3=NCCN3)cc2F)c1F`, the “H9c2 CC^50” value was 50 µM. Take `Fc1c(COc2ccc(C3=NCCN3)cc2)cccc1COc1ccc(C2=NCCN2)cc1` [drawing 866]: the “H9c2 CC^50” value came to 25 µM. Same read-out and setting: the figure for `N=C(N)c1ccc(OCCCCCCCCOc2ccc(C(=N)N)cc2)cc1` [drawing 855] is less than 5 µM; for `CC(C)(C)c1cc(COc2ccc(C(=N)N)cc2F)cc(COc2ccc(C(=N)N)cc2F)c1` [drawing 883] it is 25 µM.

Consider `Cn1c(-c2ccc(-c3ccc(C(=N)N)cc3)s2)nc2cc(-c3ccc(C(=N)N)cc3)ccc21` [drawing 848], for which the “H9c2 CC^50” value was found to be 50 µM.

In general, MIC refers to the lowest concentration found to suppress growth.
